What was measured:
CYP2D6 = molecular target: T1, CYP2D6 (Homo sapiens, UniProt P10635); experiment: CYP inhibition assay in human liver microsome; assay type: in vitro ADME; settings: human liver microsomes, probe dextromethorphan, 10µM test compound, dextromethorphan substrate, <0: not or weak inhibitor, read-out: CYP 2D6 inhibition %@10µM
T1 construct: tissue BD-Gentest 452117; host or cells: human liver microsomes
Procedure, shortened: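 HLM mixed with CYP2D6 substrate, preincubated 10 min at 37 °C, started with NADPH regenerating system and run 10 min at 37 °C before acetonitrile quench. Metabolite measured by RapidFire MS/MS against D3-dextrorphan internal standard. % inhibition scaled between DMSO and concentrated-inhibitor controls.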

hTLR7 = molecular target: T2, hTLR7 (Homo sapiens, UniProt Q9NYK1); experiment: HEK293-Blue-hTLR-7 cells assay (SEAP reporter, R848 stimulation); assay type: cell-based; parameters: host or cells: HEK293 (HEK-Blue); settings: HEK293-Blue-hTLR7 cells, R848, 20 hrs; read-out: HEK/hTLR7 IC50
T2 sequence (Q9NYK1 27-1049): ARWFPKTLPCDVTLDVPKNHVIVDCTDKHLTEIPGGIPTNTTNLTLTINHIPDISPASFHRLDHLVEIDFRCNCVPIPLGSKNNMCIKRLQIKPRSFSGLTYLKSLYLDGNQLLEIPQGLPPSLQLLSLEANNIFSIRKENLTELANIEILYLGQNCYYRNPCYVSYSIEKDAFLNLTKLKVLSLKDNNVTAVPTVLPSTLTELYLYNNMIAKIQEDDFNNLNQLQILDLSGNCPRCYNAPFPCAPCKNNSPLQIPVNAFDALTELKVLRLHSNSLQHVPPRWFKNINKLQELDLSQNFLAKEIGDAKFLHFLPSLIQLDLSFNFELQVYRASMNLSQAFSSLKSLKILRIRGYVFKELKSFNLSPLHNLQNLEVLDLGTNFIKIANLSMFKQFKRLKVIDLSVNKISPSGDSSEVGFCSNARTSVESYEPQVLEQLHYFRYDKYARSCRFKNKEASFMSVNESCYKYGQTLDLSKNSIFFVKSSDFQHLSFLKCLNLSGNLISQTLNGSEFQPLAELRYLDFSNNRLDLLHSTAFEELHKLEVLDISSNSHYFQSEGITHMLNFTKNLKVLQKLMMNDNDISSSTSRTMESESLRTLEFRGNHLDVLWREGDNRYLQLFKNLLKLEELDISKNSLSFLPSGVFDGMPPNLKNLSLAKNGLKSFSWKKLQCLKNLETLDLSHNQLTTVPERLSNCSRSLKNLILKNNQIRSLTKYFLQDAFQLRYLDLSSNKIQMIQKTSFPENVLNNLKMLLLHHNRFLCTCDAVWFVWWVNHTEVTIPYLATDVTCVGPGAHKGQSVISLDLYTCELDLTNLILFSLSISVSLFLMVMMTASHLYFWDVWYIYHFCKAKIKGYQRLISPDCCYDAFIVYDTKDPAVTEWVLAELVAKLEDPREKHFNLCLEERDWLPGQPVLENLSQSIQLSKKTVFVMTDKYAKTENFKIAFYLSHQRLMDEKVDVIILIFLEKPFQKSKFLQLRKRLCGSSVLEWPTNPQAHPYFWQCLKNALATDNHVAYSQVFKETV
Procedure, shortened: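 HEK293-Blue cells stably expressing human TLR7 with an NF-κB/AP-1-driven SEAP reporter were treated with serially diluted compound (1% DMSO final) plus R848 for 20 h at 37 °C. Supernatant SEAP activity was measured with QUANTI-Blue substrate after 2 h at 37 °C, with absorbance read at 620-655 nm.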

T1 sequence (P10635 whole entry): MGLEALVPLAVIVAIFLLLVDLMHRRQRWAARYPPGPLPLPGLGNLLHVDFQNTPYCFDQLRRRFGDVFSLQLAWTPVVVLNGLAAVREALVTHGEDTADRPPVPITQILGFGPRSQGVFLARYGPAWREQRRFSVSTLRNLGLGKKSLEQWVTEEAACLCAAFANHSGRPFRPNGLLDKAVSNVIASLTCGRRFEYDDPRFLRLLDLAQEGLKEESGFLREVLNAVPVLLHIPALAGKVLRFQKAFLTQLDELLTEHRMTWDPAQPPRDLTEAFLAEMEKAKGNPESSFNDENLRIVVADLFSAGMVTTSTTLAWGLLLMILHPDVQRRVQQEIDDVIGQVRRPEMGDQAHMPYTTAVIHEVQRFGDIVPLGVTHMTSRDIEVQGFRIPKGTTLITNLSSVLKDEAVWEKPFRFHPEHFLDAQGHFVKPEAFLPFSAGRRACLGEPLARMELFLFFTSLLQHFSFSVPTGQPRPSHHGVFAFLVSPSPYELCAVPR

inhibition at 10 min, 10 µM (CYP2D6): 19%
IC50 (hTLR7): 11 nM
SMILES: C[C@@H]1CN(c2ccc(C#N)c3ncccc23)C[C@H](CN2CCN(c3ncc4c(n3)CNC4)CC2)O1 [Example 11, 5-[(2S,6R)-2-[[4-(6,7-dihydro-5Hpyrrolo[3,4-d]pyrimidin-2-yl)piperazin-1-yl]methyl]-6-methyl-morpholin-4-yl]quinoline-8-carbonitrile]

Reference: EP3807270B1, “NOVEL HETEROARYL HETEROCYCLYL COMPOUNDS FOR THE TREATMENT OF AUTOIMMUNE DISEASE” (F. Hoffmann-La Roche AG, priority 2018, dated 2019)
